How the values were obtained:
[1] = molecular target: T1, Alpha-1A adrenergic receptor (Rattus norvegicus, UniProt P43140); test: DRUGMATRIX: Alpha-1A adrenergic receptor radioligand binding (ligand: prazosin); type: cell membranes, Wistar, Submaxillary gland, Membrane; conditions: Not Active = under 50% inhibition at 10 µM
T1 sequence (P43140 whole entry): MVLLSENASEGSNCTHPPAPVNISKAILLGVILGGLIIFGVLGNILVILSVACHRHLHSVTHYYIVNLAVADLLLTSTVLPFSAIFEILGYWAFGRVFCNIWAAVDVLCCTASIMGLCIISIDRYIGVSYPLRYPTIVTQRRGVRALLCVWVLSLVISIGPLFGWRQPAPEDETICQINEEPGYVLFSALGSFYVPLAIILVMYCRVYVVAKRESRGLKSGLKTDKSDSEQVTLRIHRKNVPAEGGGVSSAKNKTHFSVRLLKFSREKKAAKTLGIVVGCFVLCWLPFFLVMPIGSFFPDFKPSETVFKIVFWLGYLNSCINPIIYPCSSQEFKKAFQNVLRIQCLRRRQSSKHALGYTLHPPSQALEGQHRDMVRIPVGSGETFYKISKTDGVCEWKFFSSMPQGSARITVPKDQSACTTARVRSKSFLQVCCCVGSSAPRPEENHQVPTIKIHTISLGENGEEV

[2] = DRUGMATRIX: Serotonin (5-Hydroxytryptamine) 5-HT3 radioligand binding (ligand: [3H] GR-65630); type: cell membranes, Membrane; conditions: hek293; Not Active = under 50% inhibition at 10 µM
[3] = molecular target: T2, Alpha-2C adrenergic receptor (Homo sapiens, UniProt P18825); test: DRUGMATRIX: Adrenergic Alpha-2C radioligand binding (ligand: [3H] MK-912); type: cell membranes, Sf9, Membrane; conditions: sf9
T2 sequence (P18825 whole entry): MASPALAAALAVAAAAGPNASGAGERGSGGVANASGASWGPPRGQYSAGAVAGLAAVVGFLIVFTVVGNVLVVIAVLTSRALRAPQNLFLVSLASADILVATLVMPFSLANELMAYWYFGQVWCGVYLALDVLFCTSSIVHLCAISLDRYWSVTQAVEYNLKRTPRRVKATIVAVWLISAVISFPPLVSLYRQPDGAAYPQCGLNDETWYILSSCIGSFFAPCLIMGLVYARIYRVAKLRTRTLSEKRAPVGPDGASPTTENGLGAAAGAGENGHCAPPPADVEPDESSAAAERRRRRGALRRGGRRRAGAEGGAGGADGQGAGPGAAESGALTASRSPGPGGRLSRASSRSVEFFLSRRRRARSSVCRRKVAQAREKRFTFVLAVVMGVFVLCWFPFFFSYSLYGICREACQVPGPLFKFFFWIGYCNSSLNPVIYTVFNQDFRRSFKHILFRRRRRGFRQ

[4] = DRUGMATRIX: GABAA, Muscimol, Central radioligand binding (ligand: [3H] Muscimol); type: cell membranes, Rattus norvegicus, Wistar, Brain, Membrane; conditions: Not Active = under 50% inhibition at 10 µM
[5] = DRUGMATRIX: Glutamate, NMDA, Agonism radioligand binding (ligand: [3H] CGP-39653); type: cell membranes, Rattus norvegicus, Wistar, Cerebral cortex, Membrane; conditions: Not Active = under 50% inhibition at 10 µM
[6] = molecular target: Beta-2 adrenergic receptor (Homo sapiens, UniProt P07550); test: DRUGMATRIX: Adrenergic beta2 radioligand binding (ligand: [3H] CGP-12177); type: cell membranes, CHO, Membrane; conditions: cho; Not Active = under 50% inhibition at 10 µM

CCN1CCCC1CNC(=O)c1cc(S(N)(=O)=O)ccc1OC (stereo not given) [SULPIRIDE]
Not Active: IC50 [1] | IC50 [2] | Ki [2] | IC50 [3] | IC50 [4] | Ki [4] | IC50 [5] | Ki [5] | IC50 [6]

CC(O)C(=O)O (stereo not given) [LACTIC ACID]
Not Active: IC50 [1] | IC50 [2] | Ki [2] | IC50 [3] | IC50 [4] | Ki [4] | IC50 [5] | Ki [5] | IC50 [6]

CC(Cl)(Cl)Cl [TRICHLOROETHANE]
Not Active: IC50 [1] | IC50 [2] | Ki [2] | IC50 [3] | IC50 [4] | Ki [4] | IC50 [5] | Ki [5] | IC50 [6]

CCC(C)(C)C(=O)O[C@H]1C[C@@H](C)C=C2C=C[C@H](C)[C@H](CC[C@@H]3C[C@@H](O)CC(=O)O3)[C@H]21 [SIMVASTATIN]
Not Active: IC50 [1] | IC50 [2] | Ki [2] | IC50 [3] | IC50 [4] | Ki [4] | IC50 [5] | Ki [5] | IC50 [6]

Cc1ccnc(NS(=O)(=O)c2ccc(N)cc2)n1 [SULFAMERAZINE]
Not Active: IC50 [1] | IC50 [2] | Ki [2] | IC50 [3] | IC50 [4] | Ki [4] | IC50 [5] | Ki [5] | IC50 [6]

CCN(CC)N=O [N-NITROSODIETHYLAMINE]
Not Active: IC50 [1] | IC50 [2] | Ki [2] | IC50 [3] | IC50 [4] | Ki [4] | IC50 [5] | Ki [5] | IC50 [6]

CC#C[C@]1(O)CC[C@H]2[C@@H]3CCC4=CC(=O)CCC4=C3[C@@H](c3ccc(N(C)C)cc3)C[C@@]21C [MIFEPRISTONE]
Not Active: IC50 [1] | IC50 [2] | Ki [2] | IC50 [3] | IC50 [4] | Ki [4] | IC50 [5] | Ki [5] | IC50 [6]

LEAD(IV) ACETATE
Not Active: IC50 [1] | Ki [1] | IC50 [2] | Ki [2] | IC50 [3] | Ki [3] | IC50 [4] | Ki [4] | IC50 [5] | Ki [5] | IC50 [6] | Ki [6]

O=C(OC[C@H]1O[C@@H](OC(=O)c2cc(O)c(O)c(OC(=O)c3cc(O)c(O)c(O)c3)c2)[C@H](OC(=O)c2cc(O)c(O)c(OC(=O)c3cc(O)c(O)c(O)c3)c2)[C@@H](OC(=O)c2cc(O)c(O)c(OC(=O)c3cc(O)c(O)c(O)c3)c2)[C@@H]1OC(=O)c1cc(O)c(O)c(OC(=O)c2cc(O)c(O)c(O)c2)c1)c1cc(O)c(O)c(OC(=O)c2cc(O)c(O)c(O)c2)c1 [TANNIC ACID]
Not Active: IC50 [1] | IC50 [2] | Ki [2] | IC50 [3] | IC50 [4] | Ki [4] | IC50 [5] | Ki [5] | IC50 [6]

Oc1ccc(/C=C/c2cc(O)cc(O)c2)cc1 [RESVERATROL]
Not Active: IC50 [1] | IC50 [2] | Ki [2] | IC50 [3] | IC50 [4] | Ki [4] | IC50 [5] | Ki [5] | IC50 [6]

CC[C@@]1(O)C(=O)OCc2c1cc1n(c2=O)Cc2cc3c(CN(C)C)c(O)ccc3nc2-1 [TOPOTECAN]
Not Active: IC50 [1] | IC50 [2] | Ki [2] | IC50 [3] | IC50 [4] | Ki [4] | IC50 [5] | Ki [5] | IC50 [6]

C=CCc1ccc2c(c1)OCO2 [SAFROLE]
Not Active: IC50 [1] | IC50 [2] | Ki [2] | IC50 [3] | IC50 [4] | Ki [4] | IC50 [5] | Ki [5] | IC50 [6]

C1CCN2C[C@@H]3C[C@@H](CN4CCCC[C@@H]34)[C@H]2C1 [SPARTEINE]
Not Active: IC50 [1] | IC50 [2] | Ki [2] | IC50 [3] | IC50 [4] | Ki [4] | IC50 [5] | Ki [5] | IC50 [6]

CC[C@H](C)C(=O)O[C@H]1CCC=C2C=C[C@H](C)[C@H](CC[C@@H]3C[C@@H](O)CC(=O)O3)[C@H]21 [MEVASTATIN]
Not Active: IC50 [1] | IC50 [2] | Ki [2] | IC50 [3] | IC50 [4] | Ki [4] | IC50 [5] | Ki [5] | IC50 [6]

CS(=O)(=O)c1ccc(C2=C(c3ccccc3)C(=O)OC2)cc1 [ROFECOXIB]
Not Active: IC50 [1] | IC50 [2] | Ki [2] | IC50 [3] | IC50 [4] | Ki [4] | IC50 [5] | Ki [5] | IC50 [6]

Cc1cn([C@H]2C=C[C@@H](CO)O2)c(=O)[nH]c1=O [STAVUDINE]
Not Active: IC50 [1] | IC50 [2] | Ki [2] | IC50 [3] | IC50 [4] | Ki [4] | IC50 [5] | Ki [5] | IC50 [6]

Nc1nc(N)c2nc(-c3ccccc3)c(N)nc2n1
Not Active: IC50 [1] | IC50 [2] | Ki [2] | IC50 [3] | IC50 [4] | Ki [4] | IC50 [5] | Ki [5] | IC50 [6]

Cc1[nH]c(=O)c(C#N)cc1-c1ccncc1 [MILRINONE]
Not Active: IC50 [1] | IC50 [2] | Ki [2] | IC50 [3] | IC50 [4] | Ki [4] | IC50 [5] | Ki [5] | IC50 [6]

C[C@]12CCC(=O)C[C@@H]1CC[C@@H]1[C@@H]2CC[C@]2(C)[C@@H](O)CC[C@@H]12 [STANOLONE]
Not Active: IC50 [1] | IC50 [2] | Ki [2] | IC50 [3] | IC50 [4] | Ki [4] | IC50 [5] | Ki [5] | IC50 [6]

CC1(C)[C@H](C(=O)O)N2C(=O)C[C@H]2S1(=O)=O [SULBACTAM]
Not Active: IC50 [1] | IC50 [2] | Ki [2] | IC50 [3] | IC50 [4] | Ki [4] | IC50 [5] | Ki [5] | IC50 [6]

CCOC(=O)C1=C(C)NC(C)=C(C(=O)OCC)C1c1ccccc1/C=C/C(=O)OC(C)(C)C [LACIDIPINE]
Not Active: IC50 [1] | IC50 [2] | Ki [2] | IC50 [3] | IC50 [4] | Ki [4] | IC50 [5] | Ki [5] | IC50 [6]

CC(N)C12CC3CC(CC(C3)C1)C2 (stereo not given) [RIMANTADINE]
Not Active: IC50 [1] | IC50 [2] | Ki [2] | IC50 [3] | IC50 [4] | Ki [4] | IC50 [5] | Ki [5] | IC50 [6]

CO[C@@]12[C@H](COC(N)=O)C3=C(C(=O)C(C)=C(N)C3=O)N1C[C@@H]1N[C@@H]12 [MITOMYCIN]
Not Active: IC50 [1] | IC50 [2] | Ki [2] | IC50 [3] | IC50 [4] | Ki [4] | IC50 [5] | Ki [5] | IC50 [6]
